Experimental findings from patent US20230042881A1, “MODULATORS OF INTEGRATED STRESS RESPONSE PATHWAY” (Praxis Biotech LLC, priority 2021, published 2023) are described below.

Where two headings read alike, the source gives them in different places.

Assay [1] concerns Chinese hamster ovary (CHO) cells. Description: Protein synthesis assay (puromycin incorporation, Western blot). The class given is cell-based. Conditions: Cricetulus griseus, read-out: % Protein synthesis relative to untreated (1 μM test compound). How it is done:
Chinese hamster ovary (CHO) cells were maintained at 37° C. and 5% CO2 in Dulbecco's Modified Eagle's Media (DMEM) supplemented with 10% fetal bovine serum, 2 mM L-glutamine, 100 U/ml penicillin, and 100 μg/ml streptomycin. After reaching 80% of confluence, cells were detached and seeded on 6 well plates in complete media, allowed to recover overnight and treated for 2 hours with 1 μM of the test compound (to assess protein synthesis levels in unstressed condition), or for 2 hours with 300 nM Tg in the presence of 1 μM of the test compound (to assess the recovery of protein synthesis in a stressed condition). Cells with Tg alone were used as controls.
After the 2 hours treatments, media were replaced by adding 10 μg/ml puromycin (Sigma Aldrich #P8833) in complete media for 30 min. Media were removed and cells were lysed with SDS-PAGE lysis buffer. Lysates were transferred to 1.5 ml tubes and sonicated for 3 min and total protein amount were quantified using BCA Protein Assay Kit (Pierce). Equal amount of protein (30 μg) was loaded on SDS-PAGE gels.
A HRP-conjugated secondary antibody (Rockland) was employed to detect immune-reactive bands using enhanced chemiluminescence (ECL Western Blotting Substrate, Pierce). Quantification of protein bands was done by densitometry using ImageJ software.
The percentage levels were normalized to the media alone condition, which correspond to 100% protein synthesis. […]
Background: In western blotting, separated proteins are transferred to a membrane and probed.

For the next assay, the system named is ATF4. Description: ATF4 expression inhibition assay (ATF4 5′UTR luciferase reporter, thapsigargin-stressed). The class given is cell-based. Conditions: Homo sapiens, HEK-293T, read-out: ATF4 inhibition. How it is done:
The ATF4 reporter was prepared by fusing the human full length 5′UTR of ATF4 (NCBI Accession No. BC022088.2) upstream of the firefly luciferase coding sequence lacking the initiator methionine. The fused sequence was cloned into pLenti-EF1a-C-Myc-DDK-IRES-Puro cloning vector (Origen #PS100085) using standard methods.
HEK293T cells carrying the ATF4 luciferase reporter were plated on 96-well plates (Nunc) at 10,000 cells per well. Cells were treated two days after seeding with 100 nM thapsigargin (Tg) (Sigma-Aldrich #T9033) in the presence of different concentrations of selected compounds ranging from 0.1 nM to […]. Cells without treatment or cells treated with Tg alone were used as controls. Assay plates containing cells were incubated for 3 hours at 37° C.
Luciferase reactions were performed using Luciferase Assay System (Promega #E1501) as specified by the manufacturer. Luminescence was read with an integration time of 1 s and a gain of 110 using a Cytation-5 multi-mode microplate reader (BioTek).

The mark [2] stands for this setting: unstressed CHO cells (without Tg), 2 hours, 1 μM test compound, media alone = 100%.
Where [3] appears, read: HEK293T cells carrying ATF4 luciferase reporter, 100 nM thapsigargin (Tg), 3 hours at 37° C.

Take `O=C(N[C@H]1CC[C@H](C(=O)Nc2ccc3cc(Cl)ccc3n2)CC1)[C@H]1CNc2cc(Cl)ccc2O1` [Compound 6, trans-(R)-6-chloro-N-(4-((6-chloroquinolin-2-yl)carbamoyl)cyclohexyl)-3,4-dihydro-2H-benzo[b][1,4]oxazine-2-carboxamide]: the activity at 1 µM in assay [1] (setting [2]) was 100%. In addition, the IC50 in the assay with ATF4 (setting [3]) is less than 10 nM. `O=C(NN1CCC(C(=O)Nc2ccc3cc(Cl)ccc3n2)CC1)c1ccc2cc(Cl)ccc2n1` [Compound 19, 6-chloro-N-(4-((6-chloroquinolin-2-yl)carbamoyl)piperidin-1-yl)quinoline-2-carboxamide]: the activity at 1 µM in assay [1] (setting [2]) was found to be 122%. Also, the IC50 in the assay with ATF4 (setting [3]) is less than 10 nM. On to `O=C(N[C@H]1CC[C@H](C(=O)Nc2ccc3cc(Cl)ccc3n2)CC1)c1ccc2cc(Cl)ccc2n1` [Compound 2, trans-6-chloro-N-(4-((6-chloroquinolin-2-yl)carbamoyl)cyclohexyl)quinoline-2-carboxamide], for which the activity at 1 µM in assay [1] (setting [2]) was found to be 163%. Besides, in the assay with ATF4 (setting [3]), the IC50 is less than 10 nM. On to `O=C(CO[C@H]1C[C@@H](OC(F)(F)F)C1)NN1CCC(C(=O)NCC2CNc3cc(Cl)ccc3O2)CC1` (stereo partly drawn) [Compound 80, N-((6-chloro-3,4-dihydro-2H-benzo[b][1,4]oxazin-2-yl)methyl)-1-(2-(cis-3-(trifluoromethoxy)cyclobutoxy)acetamido)piperidine-4-carboxamide], for which the IC50 with ATF4 (setting [3]) is 100 to 1000 nM. For the compound `O=C(COc1ccc(Cl)c(F)c1)NN1CCC(C(=O)Nc2nc3cc(Cl)ccc3o2)CC1` [Compound 97, 1-(2-(4-chloro-3-fluorophenoxy)acetamido)-N-(5-chlorobenzo[d]oxazol-2-yl)piperidine-4-carboxamide], the activity at 1 µM in assay [1] (CHO, 2 h) is 71.5%. Further, in the assay on ATF4 (3 h), the IC50 lay in the range of 10 to 100 nM. Regarding `O=C(N[C@H]1CC[C@H](C(=O)NCC2CNc3cc(Cl)ccc3O2)CC1)C1CNc2cc(Cl)ccc2O1` (stereo partly drawn) [Compound 77, 6-chloro-N-(trans-4-(((6-chloro-3,4-dihydro-2H-benzo[b][1,4]oxazin-2-yl)methyl)carbamoyl)cyclohexyl)-3,4-dihydro-2H-benzo[b][1,4]oxazine-2-carboxamide], in assay [1] (setting [2]), the activity at 1 µM worked out at 76.6%. The IC50 with ATF4 (setting [3]) lay in the range of 10 to 100 nM. Consider `O=C(COc1ccc(Cl)c(F)c1)NN1CCC(C(=O)Nc2nc3cc(Cl)ccc3s2)CC1` [Compound 116, 1-(2-(4-chloro-3-fluorophenoxy)acetamido)-N-(5-chlorobenzo[d]thiazol-2-yl)piperidine-4-carboxamide], for which, in assay [1] (setting [2]), the activity at 1 µM was 116%. The IC50 in the assay on ATF4 (setting [3]) lay within 10 to 100 nM.

As for `O=C(CO[C@H]1C[C@@H](OC(F)(F)F)C1)N[C@H]1CC[C@H](C(=O)NCc2cc3cc(Cl)ccc3o2)CC1` [Compound 59, trans-N-((5-chlorobenzofuran-2-yl)methyl)-4-(2-(cis-3-(trifluoromethoxy)cyclobutoxy)acetamido)cyclohexane-1-carboxamide], the IC50 in the assay on ATF4 (setting [3]) lay within 100 to 1000 nM. Take `O=C(COc1ccc(Cl)c(F)c1)N[C@H]1CC[C@H](C(=O)NCC2CNc3cc(Cl)ccc3O2)CC1` (stereo partly drawn) [Compound 67, trans-N-((6-chloro-3,4-dihydro-2H-benzo[b][1,4]oxazin-2-yl)methyl)-4-(2-(4-chloro-3-fluorophenoxy)acetamido)cyclohexanecarboxamide]: the activity at 1 µM in assay [1] (setting [2]) is 109%. The IC50 in the assay on ATF4 (setting [3]) is less than 10 nM. On the same counts, the results for `O=C(COc1ccc(Cl)c(F)c1)NN1CCC(C(=O)NCc2cc3cc(Cl)ccc3o2)CC1` [Compound 40, 1-(2-(4-chloro-3-fluorophenoxy)acetamido)-N-((5-chlorobenzofuran-2-yl)methyl)piperidine-4-carboxamide] are 121% and less than 10 nM. On the same counts, the results for `O=C(CO[C@H]1C[C@@H](OC(F)(F)F)C1)N[C@H]1CC[C@H](C(=O)Nc2nc3cc(Cl)ccc3s2)CC1` [Compound 120, trans-N-(5-chlorobenzo[d]thaizol-2-yl)-4-(2-(cis-3-(trifluoromethoxy)cyclobutoxy)acetamido)cyclohexanecarboxamide] are 122% and 10 to 100 nM. On the same counts, the results for `O=C(COc1ccc(OC(F)(F)F)cc1)N[C@H]1CC[C@H](C(=O)Nc2ccc3cc(Cl)ccc3n2)CC1` [Compound 36, trans-N-(6-chloroquinolin-2-yl)-4-(2-(4-(trifluoromethoxy)phenoxy)acetamido)cyclohexanecarboxamide] are 160% and less than 10 nM. In the case of `O=C(Nc1ccc2cc(Cl)ccc2n1)C1CCN(C[C@@H](O)COc2ccc(Cl)c(F)c2)CC1` [Compound 8, (R)-1-(3-(4-chloro-3-fluorophenoxy)-2-hydroxypropyl)-N-(6-chloroquinolin-2-yl)piperidine-4-carboxamide], the activity at 1 µM in assay [1] (setting [2]) is 156%. In the assay with ATF4 (setting [3]), the IC50 was in the range of 10 to 100 nM. Regarding `O=C(NC[C@H]1CC[C@H](C(=O)NCc2cc3cc(Cl)ccc3o2)CC1)c1ccc(C(F)(F)F)cn1` [Compound 52, N-((trans-4-(((5-chlorobenzofuran-2-yl)methyl)carbamoyl)cyclohexyl)methyl)-5-(trifluoromethyl)picolinamide], the IC50 with ATF4 (setting [3]) lay within 100 to 1000 nM. For the compound `O=C(CO[C@H]1C[C@@H](OC(F)(F)F)C1)NN1CCC(C(=O)Nc2nc3cc(Cl)ccc3s2)CC1` [Compound 121, N-(5-chlorobenzo[d]thiazol-2-yl)-1-(2-(cis-3-(trifluoromethoxy)cyclobutoxy)acetamido)piperidine-4-carboxamide], the IC50 in the assay with ATF4 (setting [3]) fell in the range of 100 to 1000 nM. For the compound `O=C(NC[C@H]1CC[C@H](C(=O)Nc2ccc3cc(Cl)ccc3n2)CC1)c1ccc(C(F)(F)F)nc1` [Compound 37, trans-N-((4-((6-chloroquinolin-2-yl)carbamoyl)cyclohexyl)methyl)-6-(trifluoromethyl)nicotinamide], the IC50 in the assay on ATF4 (setting [3]) was 100 to 1000 nM.

For `O=C(NC[C@H]1CC[C@H](C(=O)Nc2ccc3cc(Cl)ccc3n2)CC1)c1ccc(C(F)(F)F)cn1` [Compound 38, trans-N-((4-((6-chloroquinolin-2-yl)carbamoyl)cyclohexyl)methyl)-5-(trifluoromethyl)picolinamide], the IC50 with ATF4 (setting [3]) was 100 to 1000 nM.

Consider `O=C(Nc1nc2cc(Cl)ccc2s1)[C@H]1CC[C@H](C(=O)N[C@H]2C[C@@H](OC(F)(F)F)C2)CC1` [Compound 123], for which, in the assay on ATF4 (setting [3]), the IC50 lay in the range of 100 to 1000 nM. Still for that read-out and setting: to `O=C(NC[C@H]1CC[C@H](C(=O)NCc2cc3cc(Cl)ccc3o2)CC1)c1ccc(C(F)(F)F)nc1` [Compound 51, N-((trans-4-(((5-chlorobenzofuran-2-yl)methyl)carbamoyl)cyclohexyl)methyl)-6-(trifluoromethyl)nicotinamide] belongs 100 to 1000 nM; to `O=C(NC[C@H]1CC[C@H](C(=O)Nc2ccc3cc(Cl)ccc3n2)CC1)c1cnc(C(F)F)cn1` [Compound 23, trans-N-((4-((6-chloroquinolin-2-yl)carbamoyl)cyclohexyl)methyl)-5-(difluoromethyl)pyrazine-2-carboxamide], more than 1000 nM. As for `O=C(C[C@H]1CC[C@H](NC(=O)COc2ccc(Cl)c(F)c2)CC1)Nc1ccc2cc(Cl)ccc2n1` [Compound 21, trans-2-(4-chloro-3-fluorophenoxy)-N-(4-(2-((6-chloroquinolin-2-yl)amino)-2-oxoethyl)cyclohexyl)acetamide], the IC50 with ATF4 (3 h) fell in the range of 100 to 1000 nM. As to `O=C(CO[C@H]1C[C@@H](OC(F)(F)F)C1)N[C@H]1CC[C@H](C(=O)Nc2nc3cc(Cl)ccc3o2)CC1` [Compound 101, trans-N-(5-chlorobenzo[d]oxazol-2-yl)-4-(2-(cis-3-(trifluoromethoxy)cyclobutoxy)acetamido)cyclohexanecarboxamide], the IC50 with ATF4 (3 h) was 100 to 1000 nM. Consider `O=C(CO[C@H]1C[C@@H](OC(F)(F)F)C1)N[C@H]1CC[C@H](C(=O)NCC2CNc3cc(Cl)ccc3O2)CC1` (stereo partly drawn) [Compound 79, trans-N-((6-chloro-3,4-dihydro-2H-benzo[b][1,4]oxazin-2-yl)methyl)-4-(2-(cis-3-(trifluoromethoxy)cyclobutoxy)acetamido)cyclohexane-1-carboxamide], for which, in the assay with ATF4 (setting [3]), the IC50 fell in the range of 100 to 1000 nM. Still for that read-out and setting: to `O=C(CO[C@H]1C[C@@H](OC(F)(F)F)C1)NN1CCC(C(=O)NCc2cc3cc(Cl)ccc3o2)CC1` [Compound 56, N-((5-chlorobenzofuran-2-yl)methyl)-1-(2-(cis-3-(trifluoromethoxy)cyclobutoxy)acetamido)piperidine-4-carboxamide] belongs 100 to 1000 nM.
